Assay results from article PMC8814031, “Synthesis and characterization of novel combretastatin analogues of 1,1-diaryl vinyl sulfones, with antiproliferative potential via in-silico and in-vitro studies” (Scientific Reports, 2022).
Like-named read-outs stand apart in the source and are kept apart here.

Experiments:
[1] = system: IMR-32 (neuroblast cancer) cells; experiment: MTT antiproliferative assay, IMR-32; format: cell-based; conditions: mean ± SEM of three experiments, read-out: IC50 values against selected human cancer cell lines, IMR32
Description: (§1) A panel of four cancer cell lines used for testing the in-vitro cytotoxicity include: MDA-MB-231 derived from human breast adenocarcinoma cells (ATCC No HTB-26), HeLa derived from human cervical cancer cells (ATCC No. CCL-2), A549 derived from human alveolar adenocarcinoma epithelial cells (ATCC No. CCL-185) and IMR-32 derived from human neuroblastoma cell line (ATCC No CCL-127), with a normal cell line HEK-293 (human embryonic kidney cell). These cancer cell lines were obtained from the American Type Culture Collection (ATCC), Manassas, VA, USA, and stored before use.
(§2) The cytotoxicity of synthesized compounds 4A–V were determined in triplicates by 3-[4,5-dimethylthiazol-2-yl]-2,5-diphenyltetrazolium bromide (MTT) assay[51]^,[52]. The pale yellow coloured tetrazolium salt (MTT) reduced to a dark blue water-insoluble formazan by metabolically active cells and the product was measured quantitatively after solubility in DMSO. The absorbance of the soluble formazan is directly proportional to the number of viable cells. A panel of four cancer cell lines were used for testing the in-vitro cytotoxicity. These cell lines were grown in Dulbecco’s modified Eagle’s medium (DMEM) containing non-essential amino acids and 10% FBS. All the cells were maintained under humidified conditions of 5% CO2 atmosphere at 37 °C in a CO2 incubator (Model Galaxy 170S, Eppendorf, USA). The 96-well micro titre plates were incubated for 24 h prior to addition of the experimental compounds. Cells were treated with vehicle alone (DMSO) or compounds (drugs (1 µg/mL) were dissolved in 100 µL DMSO previously) at different concentrations (0.1, 1, 10 and 25 µM) of test compounds for 48 h. The assay was completed with the addition of MTT (5%, 10µL) and incubated for 60 min at 37 °C. The supernatant was aspirated and plates were air dried and the MTT-formazan crystals were dissolved in 100 µL of DMSO.
(§3) The optical density (O.D) was measured at 570 nm using TECAN multimode reader (Infinite® M200Pro, Tecan, Switzerland). The percent cell viability of each treated well of 96 well plate was calculated based on test wells relative to control wells. Doxorubicin was used as positive controls for comparison purpose and 1% DMSO as a vehicle control. The cytotoxicity of test compounds was expressed in terms of IC50 value, which is defined as a concentration of compound that produced 50% reduction absorbance relative to control, and the absorbance at 570 nm wavelength was recorded.

A549 (lung cancer) cells = experiment: MTT antiproliferative assay, A549; format: cell-based; conditions: Homo sapiens, 48 h, mean ± SEM of three experiments, read-out: IC50 values against selected human cancer cell lines, A549
Experimental: These cancer cell lines were obtained from the American Type Culture Collection (ATCC), Manassas, VA, USA, and stored before use.
The pale yellow coloured tetrazolium salt (MTT) reduced to a dark blue water-insoluble formazan by metabolically active cells and the product was measured quantitatively after solubility in DMSO. The absorbance of the soluble formazan is directly proportional to the number of viable cells. A panel of four cancer cell lines were used for testing the in-vitro cytotoxicity. These cell lines were grown in Dulbecco’s modified Eagle’s medium (DMEM) containing non-essential amino acids and 10% FBS. […] The 96-well micro titre plates were incubated for 24 h prior to addition of the experimental compounds. […] The supernatant was aspirated and plates were air dried and the MTT-formazan crystals were dissolved in 100 µL of DMSO.
The optical density (O.D) was measured at 570 nm using TECAN multimode reader (Infinite® M200Pro, Tecan, Switzerland). The percent cell viability of each treated well of 96 well plate was calculated based on test wells relative to control wells. Doxorubicin was used as positive controls for comparison purpose and 1% DMSO as a vehicle control.

[2] = system: MDA-MB 231 (breast cancer) cells; experiment: MTT antiproliferative assay, MDA-MB 231; format: cell-based; conditions: mean ± SEM of three experiments, read-out: IC50 values against selected human cancer cell lines, MDA-MB 231
Description: as §1, §2, §3

[3] = system: HEK-293 (human embryonic kidney normal cell line); experiment: MTT cytotoxicity assay, normal cell line HEK-293; format: cell-based; conditions: normal cell line
Description: as §1, §2, §3

[4] = system: HeLa (cervical cancer) cells; experiment: MTT antiproliferative assay, HeLa; format: cell-based; conditions: 48 h, mean ± SEM of three experiments, read-out: IC50 values against selected human cancer cell lines, HeLa
Description: as §1, §2, §3

Row | Compound | IC50 ([1]; Homo sapiens, IMR-32, 48 h) | IC50 (A549 (lung cancer) cells) | IC50 ([2]; Homo sapiens, MDA-MB-231, 48 h) | melting point | IC50 ([4]; Homo sapiens, HeLa) | IC50 ([1]; 48 h) | IC50 ([2]; 48 h) | IC50 [4] | IC50 ([3]; Homo sapiens, HEK293, 48 h) | IC50 ([3]; 48 h)
1 | COc1cc(/C(=C\S(=O)(=O)c2ccc(C)cc2)c2ccc(-c3ccccc3)cc2)cc(OC)c1OC [Compound 4U] | 11.8 ± 0.13 µM | 11.1 ± 0.78 µM | 23.9 ± 1.56 µM | 132 to 134 °C | 11.7 ± 0.81 µM | – | – | – | > 25 µM | –
2 | COc1ccc(/C(=C/S(=O)(=O)c2ccc(C)cc2)c2cc(OC)c(OC)c(OC)c2)c(OC)c1 [Compound 4C] | 7.04 ± 0.83 µM | 7.04 ± 0.08 µM | 13.6 ± 1.56 µM | 107 to 109 °C | 10.6 ± 0.56 µM | – | – | – | > 25 µM | –
3 | COc1cc(/C(=C\S(=O)(=O)c2ccc(C)cc2)c2ccccc2)cc(OC)c1OC [Compound 4A, (Z)-1,2,3-trimethoxy-5-(1-phenyl-2-tosylvinyl)benzene] | 6.4 ± 0.82 µM | 6.39 ± 0.68 µM | 19.4 ± 1.72 µM | 139 to 141 °C | 9.4 ± 0.72 µM | – | – | – | > 25 µM | –
4 | COc1cc(/C(=C\S(=O)(=O)c2ccc(C)cc2)c2ccc(Cl)c(Cl)c2)cc(OC)c1OC [Compound 4N] | 9.14 ± 0.84 µM | 6.79 ± 0.19 µM | 9.85 ± 0.72 µM | 151 to 153 °C | 9.64 ± 0.96 µM | – | – | – | > 25 µM | –
5 | COc1cc(/C(=C\S(=O)(=O)c2ccc(C)cc2)c2ccc(F)cc2)cc(OC)c1OC [Compound 4G] | 7.29 ± 0.46 µM | 6.92 ± 0.65 µM | 13.2 ± 1.49 µM | 141 to 143 °C | 8.73 ± 0.49 µM | – | – | – | > 25 µM | –
6 | COc1cc(/C(=C\S(=O)(=O)c2ccc(C)cc2)c2cccc(C(F)(F)F)c2F)cc(OC)c1OC [Compound 4Q] | – | – | – | – | – | 7.46 ± 0.61 µM | 12.2 ± 1.61 µM | 10.7 ± 0.74 µM | – | > 25 µM
7 | COc1cc(/C(=C\S(=O)(=O)c2ccc(C)cc2)c2ccc(C)c(F)c2)cc(OC)c1OC [Compound 4T] | 6.29 ± 0.07 µM | 7.22 ± 0.81 µM | 10.4 ± 1.55 µM | 124 to 126 °C | 8.39 ± 0.99 µM | – | – | – | > 25 µM | –

More lines, in order of falling IC50 ([1]; Homo sapiens, IMR-32, 48 h), values ahead:

Row | IC50 ([1]; Homo sapiens, IMR-32, 48 h) | IC50 (A549 (lung cancer) cells) | IC50 ([2]; Homo sapiens, MDA-MB-231, 48 h) | melting point | IC50 ([4]; Homo sapiens, HeLa) | IC50 ([1]; 48 h) | IC50 ([2]; 48 h) | IC50 [4] | Compound | IC50 ([3]; Homo sapiens, HEK293, 48 h) | IC50 ([3]; 48 h)
8 | 6.25 ± 0.03 µM | 5.52 ± 0.06 µM | 14.9 ± 1.54 µM | 173 to 175 °C | 10.9 ± 0.54 µM | – | – | – | COc1ccc(/C(=C/S(=O)(=O)c2ccc(C)cc2)c2cc(OC)c(OC)c(OC)c2)cc1OC [Compound 4D] | > 25 µM | –
9 | 4.1 ± 0.96 µM | 4.68 ± 0.46 µM | 14.6 ± 0.85 µM | 124 to 126 °C | 8.59 ± 0.58 µM | – | – | – | COc1ccc(/C(=C/S(=O)(=O)c2ccc(C)cc2)c2cc(OC)c(OC)c(OC)c2)cc1 [Compound 4B] | > 25 µM | –
10 | 0.23 µM | – | 0.89 ± 0.02 µM | – | 1.68 ± 0.24 µM | – | – | – | COc1cccc2c1C(=O)c1c(O)c3c(c(O)c1C2=O)C[C@@](O)(C(=O)CO)C[C@@H]3O[C@H]1C[C@H](N)[C@H](O)[C@H](C)O1 [Doxorubicin, reference compound] | – | –
